{
  "source": "patent EP0416393A1",
  "about": "“Peptidyl difluorodiol renin inhibitors” (ABBOTT LABORATORIES, priority 1989, dated 1991)",
  "key": {"human renal renin": {"molecular_target": "T1, human renal renin (Homo sapiens, UniProt P00797)", "T1 construct": "human renal renin, free from acid proteolytic activity; from tissue; host or cells: human kidney (concluded from the word 'renal')", "T1 sequence (P00797 67-406)": "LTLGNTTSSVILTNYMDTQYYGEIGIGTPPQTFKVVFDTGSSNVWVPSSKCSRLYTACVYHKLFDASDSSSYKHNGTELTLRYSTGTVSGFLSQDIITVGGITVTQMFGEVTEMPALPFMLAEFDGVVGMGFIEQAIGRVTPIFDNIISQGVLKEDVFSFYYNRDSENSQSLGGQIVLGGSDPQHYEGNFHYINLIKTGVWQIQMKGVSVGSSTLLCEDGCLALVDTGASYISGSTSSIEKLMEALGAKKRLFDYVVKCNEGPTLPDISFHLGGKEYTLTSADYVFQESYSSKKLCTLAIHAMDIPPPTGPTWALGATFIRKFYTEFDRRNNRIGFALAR", "experiment": "Inhibition of human renal renin with human angiotensinogen substrate; angiotensin I formed measured by radioimmunoassay", "type": "biochemical", "conditions": "37 degrees C, pH 6.0; read-out: IC₅₀", "protocol": "At the end of the incubation, the amount of angiotensin I formed is measured by radioimmunoassay and the molar concentration required to cause 50% inhibition, expressed as the IC₅₀ is calculated. […]"}, "[1]": {"test_system": "male cynomolgus monkeys (M. fascicularis)", "experiment": "In vivo intraduodenal activity: blood pressure in salt-depleted, anesthetized monkeys", "conditions": "1.0 mg/kg intraduodenal", "protocol": "Intraduodenal activity for the resultant compound from Example 105 was determined at 1.0 mg/kg in male cynomolgus monkeys (M. fascicularis) weighing between 3 and 5 kg. The monkeys were fed a low-salt chow and fresh fruit diet and treated twice with furosemide (5 mg/kg, po), 1 week and 1 day before the experiment. Following this regimen renders the monkeys in a salt-depleted state, characterized by normal base-line blood pressures but elevated plasma renin activities. The monkeys were fasted overnight and studied under anesthesia on the day of the experiment (sodium pentobarbitol, 15 mg/kg bolus + 0.10 mg/kg/min maintenance iv infusion). A femoral artery was catherterized for the direct and continuous measurement of blood pressure (Grass Pressure Transducer Model P23dB and Graph Polygraph Model 7). The compound was tested for intraduodenal activity via a catheter placed directly into the proximal segment of the duodenum following a laparotomy. Each monkey received only one dose of compound."}},
  "data": [
    {"smiles": "CC(C)[C@@H](O)C(F)(F)[C@H](O)[C@H](CC1CCCCC1)NC(=O)[C@H](Cc1cscn1)NC(=O)[C@@H](CC(=O)N(C)CCn1cccn1)Cc1ccccc1", "note": "[Example 105, (2R)-2-Benzyl-3-[(2-pyrazol-1-ylethyl)methylaminocarbonyl]propionic acid amide of L-(4-thiazolyl)alanine-2(S)-amino-1-cyclohexyl-4,4-difluoro-3(R),5(R)-dihydroxy-6-methylheptane]", "values": [
      {"measurement": "IC50", "setting": "human renal renin", "result": 0.35, "unit": "nM"},
      {"measurement": "MBP (Mean blood pressure)", "setting": "[1]; Monkey A, Time 0 min", "result": 85, "unit": "mm Hg"},
      {"measurement": "MBP (Mean blood pressure)", "setting": "[1]; Monkey A, Time 5 min", "result": 85, "unit": "mm Hg"},
      {"measurement": "MBP (Mean blood pressure)", "setting": "[1]; Monkey A, Time 10 min", "result": 74, "unit": "mm Hg"},
      {"measurement": "MBP (Mean blood pressure)", "setting": "[1]; Monkey A, Time 15 min", "result": 69, "unit": "mm Hg"},
      {"measurement": "MBP (Mean blood pressure)", "setting": "[1]; Monkey A, Time 20 min", "result": 65, "unit": "mm Hg"},
      {"measurement": "MBP (Mean blood pressure)", "setting": "[1]; Monkey A, Time 25 min", "result": 67, "unit": "mm Hg"},
      {"measurement": "MBP (Mean blood pressure)", "setting": "[1]; Monkey A, Time 30 min", "result": 70, "unit": "mm Hg"},
      {"measurement": "MBP (Mean blood pressure)", "setting": "[1]; Monkey A, Time 35 min", "result": 71, "unit": "mm Hg"},
      {"measurement": "MBP (Mean blood pressure)", "setting": "[1]; Monkey A, Time 40 min", "result": 74, "unit": "mm Hg"},
      {"measurement": "MBP (Mean blood pressure)", "setting": "[1]; Monkey A, Time 45 min", "result": 74, "unit": "mm Hg"},
      {"measurement": "MBP (Mean blood pressure)", "setting": "[1]; Monkey A, Time 50 min", "result": 76, "unit": "mm Hg"},
      {"measurement": "MBP (Mean blood pressure)", "setting": "[1]; Monkey A, Time 55 min", "result": 77, "unit": "mm Hg"},
      {"measurement": "MBP (Mean blood pressure)", "setting": "[1]; Monkey A, Time 60 min", "result": 79, "unit": "mm Hg"},
      {"measurement": "MBP (Mean blood pressure)", "setting": "[1]; Monkey A, Time 65 min", "result": 79, "unit": "mm Hg"},
      {"measurement": "MBP (Mean blood pressure)", "setting": "[1]; Monkey A, Time 70 min", "result": 79, "unit": "mm Hg"},
      {"measurement": "MBP (Mean blood pressure)", "setting": "[1]; Monkey A, Time 75 min", "result": 80, "unit": "mm Hg"},
      {"measurement": "MBP (Mean blood pressure)", "setting": "[1]; Monkey A, Time 80 min", "result": 79, "unit": "mm Hg"},
      {"measurement": "MBP (Mean blood pressure)", "setting": "[1]; Monkey A, Time 85 min", "result": 80, "unit": "mm Hg"},
      {"measurement": "MBP (Mean blood pressure)", "setting": "[1]; Monkey A, Time 90 min", "result": 80, "unit": "mm Hg"},
      {"measurement": "MBP (Mean blood pressure)", "setting": "[1]; Monkey A, Time 95 min", "result": 81, "unit": "mm Hg"},
      {"measurement": "MBP (Mean blood pressure)", "setting": "[1]; Monkey A, Time 100 min", "result": 82, "unit": "mm Hg"},
      {"measurement": "MBP (Mean blood pressure)", "setting": "[1]; Monkey A, Time 105 min", "result": 83, "unit": "mm Hg"},
      {"measurement": "MBP (Mean blood pressure)", "setting": "[1]; Monkey A, Time 109 min", "result": 81, "unit": "mm Hg"},
      {"measurement": "MBP (Mean blood pressure)", "setting": "[1]; Monkey A, Time 114 min", "result": 81, "unit": "mm Hg"},
      {"measurement": "MBP (Mean blood pressure)", "setting": "[1]; Monkey A, Time 119 min", "result": 81, "unit": "mm Hg"},
      {"measurement": "MBP (Mean blood pressure)", "setting": "[1]; Monkey B, Time 0 min", "result": 89, "unit": "mm Hg"},
      {"measurement": "MBP (Mean blood pressure)", "setting": "[1]; Monkey B, Time 5 min", "result": 88, "unit": "mm Hg"},
      {"measurement": "MBP (Mean blood pressure)", "setting": "[1]; Monkey B, Time 10 min", "result": 76, "unit": "mm Hg"},
      {"measurement": "MBP (Mean blood pressure)", "setting": "[1]; Monkey B, Time 15 min", "result": 79, "unit": "mm Hg"},
      {"measurement": "MBP (Mean blood pressure)", "setting": "[1]; Monkey B, Time 20 min", "result": 75, "unit": "mm Hg"},
      {"measurement": "MBP (Mean blood pressure)", "setting": "[1]; Monkey B, Time 25 min", "result": 74, "unit": "mm Hg"},
      {"measurement": "MBP (Mean blood pressure)", "setting": "[1]; Monkey B, Time 30 min", "result": 75, "unit": "mm Hg"},
      {"measurement": "MBP (Mean blood pressure)", "setting": "[1]; Monkey B, Time 35 min", "result": 78, "unit": "mm Hg"},
      {"measurement": "MBP (Mean blood pressure)", "setting": "[1]; Monkey B, Time 40 min", "result": 83, "unit": "mm Hg"},
      {"measurement": "MBP (Mean blood pressure)", "setting": "[1]; Monkey B, Time 44 min", "result": 83, "unit": "mm Hg"},
      {"measurement": "MBP (Mean blood pressure)", "setting": "[1]; Monkey B, Time 49 min", "result": 82, "unit": "mm Hg"},
      {"measurement": "MBP (Mean blood pressure)", "setting": "[1]; Monkey B, Time 54 min", "result": 83, "unit": "mm Hg"},
      {"measurement": "MBP (Mean blood pressure)", "setting": "[1]; Monkey B, Time 59 min", "result": 86, "unit": "mm Hg"},
      {"measurement": "MBP (Mean blood pressure)", "setting": "[1]; Monkey B, Time 64 min", "result": 83, "unit": "mm Hg"},
      {"measurement": "MBP (Mean blood pressure)", "setting": "[1]; Monkey B, Time 69 min", "result": 86, "unit": "mm Hg"},
      {"measurement": "MBP (Mean blood pressure)", "setting": "[1]; Monkey B, Time 74 min", "result": 87, "unit": "mm Hg"},
      {"measurement": "MBP (Mean blood pressure)", "setting": "[1]; Monkey B, Time 79 min", "result": 89, "unit": "mm Hg"},
      {"measurement": "MBP (Mean blood pressure)", "setting": "[1]; Monkey B, Time 84 min", "result": 87, "unit": "mm Hg"},
      {"measurement": "MBP (Mean blood pressure)", "setting": "[1]; Monkey B, Time 89 min", "result": 92, "unit": "mm Hg"},
      {"measurement": "MBP (Mean blood pressure)", "setting": "[1]; Monkey B, Time 94 min", "result": 86, "unit": "mm Hg"},
      {"measurement": "MBP (Mean blood pressure)", "setting": "[1]; Monkey B, Time 99 min", "result": 90, "unit": "mm Hg"},
      {"measurement": "MBP (Mean blood pressure)", "setting": "[1]; Monkey B, Time 104 min", "result": 91, "unit": "mm Hg"},
      {"measurement": "MBP (Mean blood pressure)", "setting": "[1]; Monkey B, Time 109 min", "result": 90, "unit": "mm Hg"},
      {"measurement": "MBP (Mean blood pressure)", "setting": "[1]; Monkey B, Time 114 min", "result": 92, "unit": "mm Hg"},
      {"measurement": "MBP (Mean blood pressure)", "setting": "[1]; Monkey B, Time 119 min", "result": 92, "unit": "mm Hg"}
    ]}
  ]
}
